Reference: patent US20160362416A1, “ANTIVIRAL COMPOUNDS” (Gilead Sciences, Inc., priority 2012, published 2016)
pEC50: −log10 of the molar value.

Key:
Type in all cases: cell-based
[1] = tested on: stable HCV 1a RLuc replicon cells (genotype 1a H77 replicon); assay: HCV genotype 1a RLuc replicon reporter assay; settings: Hepatitis C virus; stable genotype 1a H77 RLuc replicon cells, 72 hours
Procedure: (§1) Evaluation of cell-based anti-HCV activity: Antiviral potency (EC50) was determined using a Renilla luciferase (RLuc)-based HCV replicon reporter assay. To perform the assay for genotype 1 and 2a JFH-1, stable HCV 1a RLuc replicon cells (harboring a dicistronic genotype 1a H77 replicon that encodes a RLuc reporter), stable HCV lb RLuc replicon cells (harboring a dicistronic genotype 1b Conl replicon that encodes a RLuc reporter), or stable HCV 2a JFH-1 Rluc replicon cells (harboring a dicistronic genotype 2a JFH-1 replicon that encodes a RLuc reporter; with L31 present in NS5A) were dispensed into 384-well plates for EC50 assays. To perform the assay for genotype 2a (with M31 present in NS5A) or 2b, NS5A chimeric genotype 2a JFH-1 replicons that encodes a RLuc-Neo reporter and either genotype 2a J6 strain NS5A gene or genotype 2b MD2b-1 strain NS5A gene (both with M31 present) respectively, were either transiently transfected (t) into Huh-Lunet cells or were established as stably replicating replicon cells (s) is provided. Either cells were dispensed into 384-well plates for EC50 assays. To perform the assay for genotype 3 and 4, NS5A chimeric genotype 1b Conl replicons that encodes a Pi-RLuc reporter and either genotype 3a S52 strain NS5A gene or genotype 4a ED43 strain NS5A gene respectively, were transiently transfected (t) into Huh-Lunet cells, which were subsequently dispensed into 384-well plates. Compounds were dissolved in DMSO at a concentration of 10 mM and diluted in DMSO either manually or using an automated pipeting instrument. Serially 3-fold diluted compounds were either manually mixed with cell culture media and added to the seeded cells or directly added to the cells using an automated instrument. DMSO was used as a negative (solvent; no inhibition) control, and the protease inhibitor ITMN-191 was included at a concentration >100×EC50 as a positive control. 72 hours later, cells were lysed and Renilla luciferase activity quantified as recommended by the manufacturer (Promega-Madison, Wis.). Non-linear regression was performed to calculate EC50 values.

[2] = tested on: NS5A chimeric genotype 2a JFH-1 replicon with genotype 2a J6 strain NS5A gene (M31); assay: HCV genotype 2a J6 NS5A chimeric replicon assay, transient (t); settings: Hepatitis C virus, 72 h, read-out: 2a J6 (t) (nM)
Procedure: as §1

[3] = tested on: stable HCV 2a JFH-1 Rluc replicon cells (L31 present in NS5A); assay: HCV genotype 2a JFH-1 RLuc replicon reporter assay; settings: Hepatitis C virus, 72 h, read-out: 2a JFH (nM)
Procedure: as §1

[4] = tested on: NS5A chimeric genotype 2a JFH-1 replicon with genotype 2b MD2b-1 strain NS5A gene (M31); assay: HCV genotype 2b NS5A chimeric replicon assay, stable (s); settings: Hepatitis C virus, 72 h, read-out: 2b (s) (nM)
Procedure: as §1

[5] = tested on: NS5A chimeric genotype 1b Con1 replicon with genotype 4a ED43 strain NS5A gene; assay: HCV genotype 4a NS5A chimeric replicon assay; settings: Hepatitis C virus, 72 h, read-out: 4a (s) (nM)
Procedure: as §1, with “[…],” for “were transiently transfected (t) into Huh-Lunet cells,”

[6] = tested on: NS5A chimeric genotype 1b Con1 replicon with genotype 3a S52 strain NS5A gene; assay: HCV genotype 3a NS5A chimeric replicon assay; settings: Hepatitis C virus, 72 h, read-out: 3a (nM)
Procedure: as §1

[7] = tested on: stable HCV 1b RLuc replicon cells (genotype 1b Con1 replicon); assay: HCV genotype 1b RLuc replicon reporter assay; settings: Hepatitis C virus; stable genotype 1b Con1 RLuc replicon cells, 72 hours
Procedure: as §1

SMILES | pEC50 [1] | EC50 [2] | EC50 [3] | EC50 [4] | EC50 [5] | EC50 [6] | pEC50 [7]
COC(=O)N[C@H](C(=O)N1[C@@H](C)CC[C@H]1c1ncc(-c2ccc3c(c2)COc2cc4c(ccc5nc([C@@H]6CC[C@H](C)N6C(=O)[C@@H](NC(=O)OC)C6(C)CCOCC6)[nH]c54)cc2-3)[nH]1)C(C)C [Example AD, Methyl [(2S)-1-{(2S,5S)-2-[5-(2-{(2S,5S)-1-[(2S)-2-[(methoxycarbonyl)amino]-2-(4-methyltetrahydro-2H-pyran-4-yl)acetyl]-5-methylpyrrolidin-2-yl}-1,11-dihydroisochromeno[4′,3′:6,7]naphtho[1,2-d]imidazol-9-yl)-1H-imidazol-2-yl]-5-methylpyrrolidin-1-yl}-3-methyl-1-oxobutan-2-yl]carbamate] | 10.68 | 1.02 nM | 0.027 nM | 0.351 nM | 0.018 nM | 0.074 nM | 10.51
COC(=O)N[C@H](C(=O)N1[C@@H](c2ncc(-c3ccc4c(c3)COc3cc5c(ccc6nc([C@H]7C[C@@H](C)[C@@H](C)N7C(=O)[C@@H](NC(=O)OC)C7C[C@@H](C)O[C@H](C)C7)[nH]c65)cc3-4)[nH]2)C[C@@H](C)[C@H]1C)C1C[C@@H](C)O[C@H](C)C1 (stereo partly drawn) [Example BC, Methyl {(1S)-1-[(2R,6R)-2,6-dimethyltetrahydro-2H-pyran-4-yl]-2-[(2R,3R,5R)-5-(5-{2-[(2R,4R,5R)-1-{(2S)-2-[(2R,6R)-2,6-dimethyltetrahydro-2H-pyran-4-yl]-2-[(methoxycarbonyl)amino]acetyl}-4,5-dimethylpyrrolidin-2-yl]-1,11-dihydroisochromeno[4′,3′:6,7]naphtho[1,2-d]imidazol-9-yl}-1H-imidazol-2-yl)-2,3-dimethylpyrrolidin-1-yl]-2-oxoethyl}carbamate] | 7.99 | – | 8.04 nM | 23.1 nM | 6.24 nM | 23.3 nM | 8.61
COC(=O)N[C@H](C(=O)N1[C@@H](C)CC[C@H]1c1ncc(-c2ccc3c(c2)COc2cc4c(ccc5nc([C@@H]6CC[C@H](C)N6C(=O)[C@H](NC(=O)OC)[C@H]6C[C@@H](C)O[C@@H](C)C6)[nH]c54)cc2-3)[nH]1)C(C)C [Example AN, Methyl {(2S)-1-[(2S,5S)-2-(5-{2-[(2S,5S)-1-{(2R)-2-[(2R,6S)-2,6-dimethyltetrahydro-2H-pyran-4-yl]-2-[(methoxycarbonyl)amino]acetyl}-5-methylpyrrolidin-2-yl]-1,11-dihydroisochromeno[4′,3′:6,7]naphtho[1,2-d]imidazol-9-yl}-1H-imidazol-2-yl)-5-methylpyrrolidin-1-yl]-3-methyl-1-oxobutan-2-yl}carbamate] | 8.35 | 4.44 nM | 0.852 nM | 4.44 nM | 0.935 nM | 4.44 nM | 10.31
COC(=O)N[C@H](C(=O)N1CCC[C@H]1c1ncc(-c2ccc3c(c2)COc2cc4c(ccc5nc([C@@H]6CCCN6C(=O)[C@@H](NC(=O)OC)C6CCOCC6)[nH]c54)cc2-3)[nH]1)C1CCOCC1 [Comp 11, reference compound] | 9.69 | – | – | 0.203 nM | – | – | 9.38
COC[C@H]1C[C@@H](c2ncc(-c3ccc4c(c3)COc3cc5c(ccc6nc([C@@H]7CC[C@H](C)N7C(=O)[C@@H](NC(=O)OC)C(C)C)[nH]c65)cc3-4)[nH]2)N(C(=O)[C@@H](NC(=O)OC)C2CCOCC2)C1 [Comp 2, reference compound] | 10.26 | 0.083 nM | – | – | – | – | 10.19
CCOC(=O)N[C@H](C(=O)N1[C@@H](C)CC[C@H]1c1ncc(-c2ccc3c(c2)COc2cc4c(ccc5nc([C@@H]6CC[C@H](C)N6C(=O)[C@@H](NC(=O)OCC)C6C[C@@H](C)O[C@H](C)C6)[nH]c54)cc2-3)[nH]1)C1C[C@@H](C)O[C@H](C)C1 (stereo partly drawn) [Example BM, Ethyl {(1S)-1-[(2R,6R)-2,6-dimethyltetrahydro-2H-pyran-4-yl]-2-[(2S,5S)-2-(5-{2-[(2S,5S)-1-{(2S)-2-[(2R,6R)-2,6-dimethyltetrahydro-2H-pyran-4-yl]-2-[(ethoxycarbonyl)amino]acetyl}-5-methylpyrrolidin-2-yl]-1,11-dihydroisochromeno[4′,3′:6,7]naphtho[1,2-d]imidazol-9-yl}-1H-imidazol-2-yl)-5-methylpyrrolidin-1-yl]-2-oxoethyl}carbamate] | 10.47 | – | 0.023 nM | – | 0.039 nM | 0.143 nM | 10.28
COC(=O)N[C@H](C(=O)N1[C@@H](C)CC[C@H]1c1ncc(-c2ccc3c(c2)COc2cc4c(ccc5nc([C@@H]6CC[C@H](C)N6C(=O)[C@H](NC(=O)OC)C6C[C@@H](C)O[C@H](C)C6)[nH]c54)cc2-3)[nH]1)C(C)C (stereo partly drawn) [Example AR, Methyl {(2S)-1-[(2S,5S)-2-(5-{2-[(2S,5S)-1-{(2R)-2-[(2R,6R)-2,6-dimethyltetrahydro-2H-pyran-4-yl]-2-[(methoxycarbonyl)amino]acetyl}-5-methylpyrrolidin-2-yl]-1,11-dihydroisochromeno[4′,3′:6,7]naphtho[1,2-d]imidazol-9-yl}-1H-imidazol-2-yl)-5-methylpyrrolidin-1-yl]-3-methyl-1-oxobutan-2-yl}carbamate] | 8.05 | 5.14 nM | 2.11 nM | 15.8 nM | 4.19 nM | 8.3 nM | 10.05
CC[C@H]1CC[C@@H](c2nc3ccc4cc5c(cc4c3[nH]2)OCc2cc(-c3cnc([C@@H]4CC[C@H](C)N4C(=O)[C@@H](NC(=O)OC)C(C)C)[nH]3)ccc2-5)N1C(=O)[C@@H](NC(=O)OC)[C@@H]1CCCOC1 [Example AH, Methyl{(1S)-2-[(2S,5S)-2-ethyl-5-(9-{2-[(2S,5S)-1-{(2S)-2-[(methoxycarbonyl)amino]-3-methylbutanoyl}-5-methylpyrrolidin-2-yl]-1H-imidazol-5-yl}-1,11-dihydroisochromeno[4′,3′:6,7]naphtho[1,2-d]imidazol-2-yl)pyrrolidin-1-yl]-2-oxo-1-[(3S)-tetrahydro-2H-pyran-3-yl]ethyl}carbamate] | 10.59 | 0.172 nM | 0.031 nM | 0.104 nM | 0.017 nM | 0.154 nM | 10.68
